From patent US9061030B2, “sGC stimulators” (IRONWOOD PHARMACEUTICALS, INC., priority 2010, dated 2015) come the findings set out here.

Assay [1] deals with T1, Human soluble guanylate cyclase enzyme (hsGC) (Homo sapiens, UniProt Q02108+Q02153).
T1 construct: purchased Enzo Inc. ALX-201-177
T1 sequence (Q02153 1-619): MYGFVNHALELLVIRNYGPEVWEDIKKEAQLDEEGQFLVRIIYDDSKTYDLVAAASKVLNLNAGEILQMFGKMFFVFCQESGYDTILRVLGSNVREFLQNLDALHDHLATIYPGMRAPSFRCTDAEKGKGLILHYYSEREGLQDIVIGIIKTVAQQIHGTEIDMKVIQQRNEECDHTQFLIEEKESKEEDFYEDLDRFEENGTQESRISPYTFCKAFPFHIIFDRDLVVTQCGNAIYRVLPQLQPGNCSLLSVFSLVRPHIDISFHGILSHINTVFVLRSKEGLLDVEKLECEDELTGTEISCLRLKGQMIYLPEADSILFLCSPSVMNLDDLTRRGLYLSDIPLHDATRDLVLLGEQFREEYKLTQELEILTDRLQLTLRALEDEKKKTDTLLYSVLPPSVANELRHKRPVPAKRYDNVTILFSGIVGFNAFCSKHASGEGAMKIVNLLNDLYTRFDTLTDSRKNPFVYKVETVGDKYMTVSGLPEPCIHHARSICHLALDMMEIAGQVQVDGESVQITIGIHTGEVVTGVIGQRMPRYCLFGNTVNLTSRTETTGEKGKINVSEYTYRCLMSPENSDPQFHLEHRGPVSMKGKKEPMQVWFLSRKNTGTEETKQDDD
T1 sequence (Q02108 1-690): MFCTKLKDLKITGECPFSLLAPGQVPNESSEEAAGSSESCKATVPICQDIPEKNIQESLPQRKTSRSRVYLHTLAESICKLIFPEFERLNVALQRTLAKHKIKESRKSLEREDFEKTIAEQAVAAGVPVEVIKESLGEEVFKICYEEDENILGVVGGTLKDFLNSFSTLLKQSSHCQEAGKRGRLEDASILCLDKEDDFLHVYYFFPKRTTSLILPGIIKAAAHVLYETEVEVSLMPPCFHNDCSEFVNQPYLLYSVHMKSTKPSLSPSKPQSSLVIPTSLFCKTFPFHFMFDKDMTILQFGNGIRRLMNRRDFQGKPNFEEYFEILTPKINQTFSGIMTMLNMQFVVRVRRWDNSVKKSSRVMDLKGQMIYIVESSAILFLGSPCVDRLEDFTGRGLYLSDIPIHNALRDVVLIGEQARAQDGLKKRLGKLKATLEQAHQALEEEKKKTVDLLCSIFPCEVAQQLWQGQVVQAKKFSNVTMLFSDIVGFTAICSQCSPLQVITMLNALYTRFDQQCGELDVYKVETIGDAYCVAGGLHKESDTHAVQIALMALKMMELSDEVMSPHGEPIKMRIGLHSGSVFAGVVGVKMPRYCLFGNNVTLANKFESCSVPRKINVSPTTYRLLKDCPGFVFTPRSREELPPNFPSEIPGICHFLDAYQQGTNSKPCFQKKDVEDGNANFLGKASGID
Kind of assay: Purified human sGC enzyme activity assay (with or without SNP). Format: biochemical. The settings on record: 30 μM compound; for sGC Enzyme Activity Increase at 30 μM with SNP: 1 μM SNP, specific activity vs DMSO and SNP; for sGC Enzyme Activity Increase at 30 μM without SNP: specific activity vs DMSO control. As to the method: Human soluble guanylate cyclase enzyme (hsGC) obtained from Enzo Inc. (P/N: ALX-201-177) was used to evaluate the activity of test compounds. The assay reactions contained 0.1 M Tris (pH 8.0), 0.5 mg/mL BSA (pH 8.0), 2 mM DTT, 2 mM MgCl2, 300 μM GTP, 1 mM 3-isobutyl-1-methylxanthine (IBMX) and 5 ng human soluble guanylate cyclase enzyme. Test compounds in DMSO were then added (2 μL, 10 or 30 μM final concentration) and incubated (200 μL, 96-well plate format) at 37° C. for 30 minutes. The controls were carried out using 2 μL DMSO. After the 30 minute incubation, the reaction was stopped with the addition of 200 μL of cold methanol. The plate was then centrifuged at 3,200 rpm for 10 minutes at room temperature. Supernatants (200 μL) were collected and transferred to a new 96 well plate for analysis.
An 8 point cGMP (Sigma-Aldrich P/N: G6129) standard curve was prepared in assay buffer ranging from 0.156-20 μM. Samples for the cGMP standard curve were then diluted with an equal volume of methanol resulting in final cGMP concentrations of 0.078-10 μM.
The cGMP standard curve was generated using GraphPad Prism Software.
Calculations: Specific Activity was determined by the amount of cGMP formed (nmoles) per mg of sGC per min. Enzyme activity “fold-change” was calculated by dividing the Specific Activity for a test compound by the Specific Activity of DMSO control.
The enzymatic activity fold-change of the purified human sGC enzyme determined in the presence of each of the test compounds individually at 10 or 30 μm without the addition of sodium nitroprusside (SNP), a nitric oxide donor, is presented in Table 5.
Enzyme assays were also performed as described above, but in the presence of 1 μM sodium nitroprusside (SNP). Enzymatic activity fold-changes are reported for selected test compounds in the presence of both SNP and the test compound. These were calculated by dividing the specific activity (activity increase) for the test compound dissolved in DMSO and SNP over the specific activity for the mixture of DMSO and SNP.

Assay [2] deals with T2, soluble guanylate cyclase (sGC) (Homo sapiens, UniProt Q02108+Q02153).
T2 construct: endogenously expressing soluble guanylate cyclase (sGC); endogenous in cells; host or cells: HEK293
T2 sequence (Q02153 1-619): T1 sequence (Q02153 1-619)
T2 sequence (Q02108 1-690): T1 sequence (Q02108 1-690)
Briefly: sGC-HEK-cGMP assay. Format: cell-based. The following applies: HEK293 cells, 10 μM SNP, percentage of sGC activity obtained with positive control BAY 41-2272 (= 100%); for Emax at 10 µM: compound at 10 μM; for Emax at 30 µM: compound at 30 μM. As to the method:
Human embryonic kidney cells (HEK293), endogenously expressing soluble guanylate cyclase (sGC), were used to evaluate the activity of the test compounds. Compounds stimulating the sGC receptor should cause an increase in the intracellular concentration of cGMP. HEK 293 cells were seeded in Dulbecco's Modification of Eagle's Medium supplemented with fetal bovine serum (10% final) and L-glutamine (2 mM final) in a 200 μL volume at a density of 1×10^5 cells/well in a poly-D-lysine coated 96 well flat bottom plate and grown overnight at 37° C. Medium was aspirated and cells were washed with 1× Hank's Buffered Saline Salt Solution (200 μL). Cells were then incubated for 15 minutes at 37° C. with 0.5 mM 3-isobutyl-1-methylxanthine (200 μL). Test article was then added to the assay mixture (2 μL) and incubated in the presence of 10 μM Sodium Nitroprusside (SNP) at 37° C. for 10 minutes. After the 10 minute incubation, the assay mixture was aspirated and 0.1M HCl (200 μL) was added to the cells. The plate was incubated at 4° C. for 30 minutes in the 0.1M HCl to stop the reaction and lysed the cells. The plates were then centrifuged at 1,200 g for 5 minutes at room temperature. Supernatants were collected and transferred to a new flat bottom 96 well plate for analysis. Vehicle controls were carried out using DMSO (1%). A known sGC stimulator, BAY 41-2272, was used as the positive control.
Samples were diluted with an equal volume of 1 M Ammonium Acetate (pH 7) to neutralize samples for better chromatography. A 2×cGMP standard curve was prepared in 0.1 M HCl and then diluted with an equal volume of 1 M Ammonium Acetate, with the following final concentrations in nM: 1024, 512, 256, 128, 64, 32, 16, 8, 4, 2, 1.cGMP concentrations were determined from each sample using the LC/MS conditions (Table 2 below) and calculated standard curve. EC50 values were calculated from concentration-response curves generated with GraphPad Prism Software.
The biological activities of some of the compounds according to Formula IA or Formula IB determined with the sGC-HEK assay are summarized in Table 3 below.

The term Emax denotes the maximal effect, on the per cent scale that the assay sets. In the case of `Fc1ccccc1Cn1nc(-c2ncccn2)nc1-c1ccon1` [Compound I-59, 3-(1-(2-fluorobenzyl)-3-(pyrimidin-2-yl)-1H-1,2,4-triazol-5-yl)isoxazole], in assay [1], the “sGC Enzyme Activity Increase at 30 μM with SNP” value is “A (A = no increase to <1 fold increase)” and the “sGC Enzyme Activity Increase at 30 μM without SNP” value is recorded as “A (A = no increase to <1 fold increase)”. In assay [2], this compound returned a maximal effect (Emax) at 10 µM of 0 to 5% and an Emax at 30 µM of 0 to 5%.

On to `Nc1nc(-c2nc(-c3nccs3)n(Cc3ccccc3F)n2)nc(N)c1N` [Compound I-57, 2-(1-(2-fluorobenzyl)-5-(thiazol-2-yl)-1H-1,2,4-triazol-3-yl)pyrimidin-4,5,6-triamine], for which, in assay [1], the “sGC Enzyme Activity Increase at 30 μM with SNP” value was “C (C = 2 to <5 fold increase)” and the “sGC Enzyme Activity Increase at 30 μM without SNP” value was “B (B = 1 to <2 fold increase)”. In assay [2], this compound gave an Emax at 10 µM of 0 to 5% and a maximal response (Emax) at 30 µM of 0 to 5%.

As to `Fc1ccccc1Cn1nc(-c2ccccn2)nc1Br` [Compound I-16, 2-(5-bromo-1-(2-fluorobenzyl)-1H-1,2,4-triazol-3-yl)pyridine], in assay [1], the “sGC Enzyme Activity Increase at 30 μM with SNP” value is “C (C = 2 to <5 fold increase)” and the “sGC Enzyme Activity Increase at 30 μM without SNP” value is “B (B = 1 to <2 fold increase)”. In assay [2], this compound displayed a maximal response (Emax) at 10 µM of 0 to 5% and a maximal response (Emax) at 30 µM of 5 to 10%.

As for `Fc1ccccc1Cn1nc(-c2ccccn2)nc1-c1ccccc1` [Compound I-2], in assay [1], the “sGC Enzyme Activity Increase at 30 μM with SNP” value was “C (C = 2 to <5 fold increase)” and the “sGC Enzyme Activity Increase at 30 μM without SNP” value was “D (D = 5 to <10 fold increase)”. In assay [2], this compound displayed an Emax at 10 µM of 5 to 10% and an Emax at 30 µM of 5 to 10%.

As for `Fc1ccccc1Cn1nc(-c2cc(Br)ccn2)nc1-c1cscn1` [Compound I-51, 4-(3-(4-bromopyridin-2-yl)-1-(2-fluorobenzyl)-1H-1,2,4-triazol-5-yl)thiazole], in assay [1], the “sGC Enzyme Activity Increase at 30 μM with SNP” value is on record as “E (E = 10 to <20 fold increase)” and the “sGC Enzyme Activity Increase at 30 μM without SNP” value is “C (C = 2 to <5 fold increase)”. In assay [2], this compound registered a maximum response (Emax) at 10 µM of 20 to 40% and an Emax at 30 µM of 20 to 40%.

Consider `Fc1ccccc1Cn1nc(-c2nccs2)nc1-c1ccccn1` [Compound I-26], for which, in assay [1], the “sGC Enzyme Activity Increase at 30 μM with SNP” value is listed as “D (D = 5 to <10 fold increase)” and the “sGC Enzyme Activity Increase at 30 μM without SNP” value was “C (C = 2 to <5 fold increase)”. In assay [2], this compound gave an Emax at 10 µM of 10 to 20% and an Emax at 30 µM of 10 to 20%.

With `Fc1ccccc1Cn1nc(-c2ccccn2)nc1C1CC1` [Compound I-21], in assay [1], the “sGC Enzyme Activity Increase at 30 μM with SNP” value is reported as “B (B = 1 to <2 fold increase)” and the “sGC Enzyme Activity Increase at 30 μM without SNP” value is “B (B = 1 to <2 fold increase)”. In assay [2], the Emax at 10 µM lay within 0 to 5% and the Emax at 30 µM fell in the range of 0 to 5%.

`Fc1ccc(-c2nc(-c3nccs3)nn2Cc2ccccc2F)nc1` [Compound I-39]: in assay [1], the “sGC Enzyme Activity Increase at 30 μM with SNP” value is “C (C = 2 to <5 fold increase)” and the “sGC Enzyme Activity Increase at 30 μM without SNP” value is reported as “B (B = 1 to <2 fold increase)”. Further, in assay [2], the maximal response (Emax) at 10 µM is 5 to 10% and the Emax at 30 µM lay in the range of 5 to 10%.

Consider `Fc1ccccc1Cn1nc(-c2cc(Br)ccn2)nc1-c1cocn1` [Compound I-54, 4-(3-(4-bromopyridin-2-yl)-1-(2-fluorobenzyl)-1H-1,2,4-triazol-5-yl)oxazole], for which, in assay [1], the “sGC Enzyme Activity Increase at 30 μM with SNP” value was “D (D = 5 to <10 fold increase)” and the “sGC Enzyme Activity Increase at 30 μM without SNP” value was “C (C = 2 to <5 fold increase)”. In assay [2], this compound yielded an Emax at 10 µM of 20 to 40% and an Emax at 30 µM of 40 to 60%.

For the compound `Fc1ccccc1Cn1nc(-c2cocn2)nc1-c1ccccn1` [Compound I-13, 4-(1-(2-fluorobenzyl)-5-(pyridin-2-yl)-1H-1,2,4-triazol-3-yl)oxazole], in assay [1], the “sGC Enzyme Activity Increase at 30 μM with SNP” value is given as “B (B = 1 to <2 fold increase)” and the “sGC Enzyme Activity Increase at 30 μM without SNP” value is “C (C = 2 to <5 fold increase)”. Further, in assay [2], the maximum response (Emax) at 10 µM was 0 to 5% and the maximal effect (Emax) at 30 µM lay in the range of 0 to 5%.

Take `Fc1ccccc1Cn1nc(-c2cc(N3CCOCC3)ccn2)nc1-c1cocn1` [Compound I-68, 4-(2-(1-(2-fluorobenzyl)-5-(oxazol-4-yl)-1H-1,2,4-triazol-3-yl)pyridin-4-yl)morpholine]: in assay [1], the “sGC Enzyme Activity Increase at 30 μM with SNP” value is recorded as “E (E = 10 to <20 fold increase)” and the “sGC Enzyme Activity Increase at 30 μM without SNP” value is reported as “C (C = 2 to <5 fold increase)”. In assay [2], the maximal effect (Emax) at 10 µM is 20 to 40% and the maximal effect (Emax) at 30 µM lay in the range of 40 to 60%.

For `Fc1ccccc1Cn1nc(-c2ncccn2)nc1-c1ccccc1` [Compound I-27], in assay [1], the “sGC Enzyme Activity Increase at 30 μM with SNP” value is reported as “B (B = 1 to <2 fold increase)” and the “sGC Enzyme Activity Increase at 30 μM without SNP” value is “B (B = 1 to <2 fold increase)”. In assay [2], this compound gave a maximal effect (Emax) at 10 µM of 0 to 5% and a maximum response (Emax) at 30 µM of 0 to 5%.
